# US9937182B2, “Therapeutic strategies for the treatment of preeclampsia” (UNIVERSITY OF IOWA RESEARCH FOUNDATION, priority 2013, dated 2018)
# “Also recorded” adds a separate entry of the source. Read-outs that look alike come from different tables or passages of the source.
# How the values were obtained:
# abdominal aorta = test: Abdominal aortic ring vascular reactivity (organ bath); format: cell-based, mice; details: for Emax: Mus musculus, relaxation after PGF2α contraction, read-out: Maximum Response; for Maximum Response: contractile response
# Description: Aortic Vascular Reactivity: Abdominal aortic rings were assessed for vascular reactivity as previously described (32). Briefly, mice were euthanized by overdose of pentobarbital (50 mg, i.p.), and the abdominal aorta was quickly removed and placed in Kreb's buffer containing (in mmol/L): 118.3 NaCl, 4.7 KCl, 1.2 MgSO4, 1.2 KH2PO4, 25 NaHCO3, 2.5 CaCl2 and 11 glucose. Vascular rings (4-5 mm in length) were suspended in oxygenated Kreb's buffer (95% O2/5% CO2) in organ baths at 37° C. and connected to a force transducer via steel hooks. Resting tension was adjusted to 0.5 grams over 45 minutes. Contractile responses were tested in response to AVP (10^−10-10^−6 mol/L), phenylephrine (PE, 10^−8-3×10^−5), endothelin-1 (ET-1, 10^−10-10^−7), prostaglandin F2α (PGF2α, 10^−7-10^−4), and angiotensin II (Ang II, 10^−10-10^−7). Following sub-maximal contraction with PGF2α (40-50% of max; 3×10^−6-6×10^−6), relaxation responses to acetylcholine (10^−8-3×10^−5) and sodium nitroprusside (10^−9-10^−5) were determined.
# (§1) Statistics: Data were analyzed by ANOVA with repeated measures as appropriate. Post-hoc analyses were performed using Bonferroni multiple-comparisons procedures. EC50 and maximum response calculations were performed by fitting individual dose-response data sets to a four-parameter logistic function (Hillslope method); y=min+([…])/(1+(x/EC50)^Hillslope). All mRNA fold changes were calculated using the Livak method (54). All analytical comparisons were performed using SigmaStat/SigmaPlot (Systat). All data are presented as mean±sem.
# [1] = test system: sRA mice and littermate controls; test: Plasma vasopressin (ELISA) after BH4 treatment; format: in vivo; details: BH4 10 mg/kg/day i.p., three days
# Description: Methods: Double-transgenic sRA mice and littermate controls were placed into single-mouse metabolic cages (Nalgene), and maintained on a 12:12 light:dark cycle at 22° C. with ad libitum access to standard chow (Teklad 7013) and water. Mice were injected once daily (i.p.) with BH4 to achieve 10 mg/kg/day. On the fourth day, mice were sacrificed by CO2 asphyxiation and trunk blood was collected into lithium heparin-coated tubes and placed on ice between 11:30 AM and 1:00 PM (5.5 to 7 hours into the light phase of the standard light cycle). Blood was then centrifuged at 2,000×g for 20 minutes. Plasma was collected and stored at −80° C. until analysis. Plasma samples were analyzed for vasopressin using a commercially-available ELISA kit (Cayman, catalog #583951), according to the manufacturer's instructions. Results falling outside the range of the standard curve (>3,000 pg/mL or <23.4 pg/mL) were set to the maximum or minimum (3,000 or 23.4 pg/mL), respectively, for statistical comparisons. Data were analyzed by three-way ANOVA followed by Tukey all-pairwise multiple comparison procedures.
# [2] = test system: isolated neurointermediate lobes; details: baseline and potassium-stimulated conditions; cited from earlier work
# rats = details: euhydrated vs dehydrated; cited from earlier work
# sRA mice [3] = test: Tail-cuff systolic blood pressure during chronic subcutaneous antagonist infusion; format: in vivo; details: 22 ng/h sc, 10 days chronic infusion
# sRA mice [4] = test: Radiotelemetric blood pressure, heart rate and physical activity during antagonist infusion; format: in vivo
# Description: Blood pressure (telemetry). Radiotelemetric blood pressures were recorded from the carotid artery essentially as previously reported (29). Briefly, a telemeter probe (DSI, model TA11PA-C10) was inserted into the common carotid artery under ketamine-xylazine anesthesia. After >2 days of recovery, blood pressure, heart rate, and spontaneous physical activity were recorded for 30 s every 5 min using the Dataquest program (DSI). After baseline recordings, mice were chronically delivered conivaptan and tolvaptan via osmotic minipump that was implanted through an interscapular incision into the subcutaneous space of the back under isoflurane anesthesia.
# [5] = test system: 2°-branch mesenteric artery; test: Mesenteric artery vascular reactivity (pressurized myography); format: cell-based, mice; details: for Emax: Mus musculus, read-out: Maximum Response
# Description: Mesenteric Artery Vascular Reactivity: Secondary branches of mesenteric artery were dissected and placed in chilled oxygenated (21% O2, 5% CO2, and 74% N2) Kreb's buffer. A segment (˜1 mm long) of artery was transferred to a vessel chamber (DMT), cannulated with glass micropipettes and secured with silk ligatures. The artery was slowly pressurized to 40 mmHg without flow. After 30 min equilibration, vessel viability was tested by constriction response to 100 mM KCl. Vascular responses to PE (10-9-10-5 mol/L), AVP (10-12-10-7 mol/L), and ET-1 (10-11-10-8 mol/L) were then assessed. The artery was then superfused with calcium-free Krebs buffer containing 10-5 mol/L sodium nitroprusside and 2 mmol/L EGTA to maximally dilate the vessel. Internal and external diameters were measured at 75 mm Hg. Wall thickness, media/lumen ratio and cross sectional area (CSA) were calculated as previously described by Neves, et al. (62).
# as §1
# [6] = test system: sRA and control littermate mice; test: Blood chemistry following tolvaptan infusion (iSTAT CHEM8+); format: in vivo; details: for Crenfinine: lower detection limit 0.20 mg/dl
# Description: Blood pressure (tail-cuff). Here we first examined blood pressure in sRA mice using a Visitech Systems BP-2000 tail-cuff blood pressure monitoring system, as previously described (84). Briefly, animals were acclimated to warmed restraint boxes daily for 1 wk. Once acclimated, 30 measurements of systolic blood pressure were averaged from each animal daily for 2 wk to assess baseline blood pressure. Conivaptan (Vaprisol, YM 087, 22 ng/h sc, Baxter Healthcare) or tolvaptan (OPC-41061, 22 ng/h sc, Sigma Aldrich) was delivered to distinct subsets of mice by osmotic minipump (model 1004, Alzet). After osmotic minipump implantation, pressures were recorded daily for 10 days to assess drug effects.
# Blood and urine analyses: Plasma was obtained by collecting whole blood by submandibular bleed into lithium heparin coated tubes, then centrifuged at 5,000×g for 5 minutes, and the supernatant transferred to a fresh tube and frozen at −80° C. until analysis. Urine was collected using Nalgene single-mouse metabolism cages as previously described (29). Copeptin was measured using an ELISA kit (USCN Life Sciences), according to the manufacturer's instructions. Blood chemistries and urine creatinine were determined using a handheld iSTAT clinical chemistry analyzer (Abbott), with CHEM8+ cartridges. Urine protein was determined using a bicinchoninic acid assay kit (Thermo Fisher/Pierce), according to the manufacturer's instructions.
# [7] = test system: polycystic kidney disease; details: average dose 95 mg per day over 3 years, cited from earlier work
# [8] = test system: patients with heart failure; details: with traditional diuretics; cited from earlier work
# DOCA-salt hypertension = details: rats, intracerebroventricular (ICV) infusion; cited from earlier work
# [9] = exemplar female sRA mouse, conivaptan 22 ng/h sc, 18 days
# [10] = males, Control mice, tolvaptan 22 ng/h, 10 days sc
structure (smiles),measurement,setting,value
CC(=O)OCC[N+](C)(C)C [Acetylcholine],Emax,abdominal aorta; male Control mice,78.9 ± 3.3%
same,Emax,abdominal aorta; male sRA mice,70.4 ± 8.9%
CC[C@H](C)[C@H](NC(=O)[C@H](Cc1ccc(O)cc1)NC(=O)[C@@H](NC(=O)[C@H](CCCNC(=N)N)NC(=O)[C@@H](N)CC(=O)O)C(C)C)C(=O)N[C@@H](Cc1c[nH]cn1)C(=O)N1CCC[C@H]1C(=O)N[C@@H](Cc1ccccc1)C(=O)O [Angiotensin II],Maximum Response,abdominal aorta; male Control mice,0.32 ± 0.03 g
same,Maximum Response,abdominal aorta; male sRA mice,0.38 ± 0.03 g
"C[C@H](O)[C@H](O)[C@H]1CNc2[nH]c(N)nc(=O)c2N1 [BH4, (6R)-2-Amino-6-[(1R,2S)-1,2-dihydroxypropyl]-5,6,7,8-tetrahydropteridin-4(1H)-one]",steady-state plasma AVP levels,[1]; control littermate mice,no effect on steady-state AVP levels; also recorded: unchanged
same,steady-state plasma AVP levels,[1]; sRA mice,significant (P=0.017) reduction; also recorded: significantly (*P=0.017) reduced
same,vasopressin content,[2],reduces vasopressin content
same,neurohypophysial vasopressin,rats,reduces neurohypophysial vasopressin under euhydrated but not dehydrated conditions
"Cc1nc2c([nH]1)-c1ccccc1N(C(=O)c1ccc(NC(=O)c3ccccc3-c3ccccc3)cc1)CC2 [Conivaptan, N-(4-((4,5-dihydro-2-methylimidazo[4,5-d][1]benzazepin-6(1H)-yl)carbonyl)phenyl)-(1,1′-biphenyl)-2-carboxamide]",systolic blood pressure (tail-cuff),sRA mice [3],complete normalization of the hypertension
same,"blood pressure (telemetry, MAP)",sRA mice [4]; [9],gradual but substantial reduction in blood pressure
same,heart rate (telemetry),sRA mice [4]; [9],slight reduction in heart rate
same,spontaneous physical activity,sRA mice [4]; [9],remained normal
CC[C@H](C)[C@H](NC(=O)[C@H](CC(=O)O)NC(=O)[C@H](CC(C)C)NC(=O)[C@H](Cc1c[nH]cn1)NC(=O)[C@@H]1CSSC[C@H](N)C(=O)N[C@@H](CO)C(=O)N[C@H]2CSSC[C@H](NC(=O)[C@H](CCC(=O)O)NC(=O)[C@H](CCCCN)NC(=O)[C@H](CC(=O)O)NC(=O)[C@H](CCSC)NC(=O)[C@H](CC(C)C)NC(=O)[C@H](CO)NC(=O)[C@H](CO)NC2=O)C(=O)N[C@@H](C(C)C)C(=O)N[C@@H](Cc2ccc(O)cc2)C(=O)N[C@@H](Cc2ccccc2)C(=O)N1)C(=O)N[C@H](C(=O)N[C@@H](Cc1c[nH]c2ccccc12)C(=O)O)[C@@H](C)CC [Endothelin-1],Maximum Response,abdominal aorta; male Control mice,0.45 ± 0.04 g
same,Maximum Response,abdominal aorta; male sRA mice,0.55 ± 0.09 g
same,Maximum Response,[5]; male Control mice,67.8 ± 4.3%
same,Maximum Response,[5]; male sRA mice,58.0 ± 4.6%
CNC[C@H](O)c1cccc(O)c1 [Phenylephrine],Emax,[5]; male Control mice,67.3 ± 3%
same,Emax,[5]; male sRA mice,64.5 ± 4.1%
CCCCC[C@H](O)/C=C/[C@@H]1[C@@H](C/C=C\CCCC(=O)O)[C@@H](O)C[C@H]1O [Prostaglandin F2α],Maximum Response,abdominal aorta; male Control mice,1.59 ± 0.06 g
same,Maximum Response,abdominal aorta; male sRA mice,1.50 ± 0.10 g
"Cc1ccccc1C(=O)Nc1ccc(C(=O)N2CCC[C@@H](O)c3cc(Cl)ccc32)c(C)c1 [Tolvaptan, N-(4-[[(5R)-7-chloro-5-hydroxy-2,3,4,5-tetrahydro-1H-1-benzazepin-1-yl]carbonyl]-3-methylphenyl)-2-methylbenzamide]",systolic blood pressure (tail-cuff),sRA mice [3],nearly identical normalization of blood pressure
same,"blood pressure (radiotelemetry, MAP)","sRA mice [4]; cohort of sRA mice (n=4 female), tolvaptan sc infusion 10 days",blood pressure reduction was confirmed
same,hyponatremia and hypocalcemia of sRA mice,"[6]; chronic tolvaptan delivery, genotype X drug interaction P<0.05 for both",corrected both of these imbalances
same,Crenfinine,"[6]; females, Control mice, tolvaptan 22 ng/h, 10 days sc",0.24 ± 0.02 mg/dL
same,Crenfinine,"[6]; females, sRA mice, tolvaptan 22 ng/h, 10 days sc",0.33 ± 0.04 mg/dL
same,Sodium,[6]; [10],148 mM
same,Crenfinine,[6]; [10],0.25 ± 0.03 mg/dL
same,Crenfinine,"[6]; males, sRA mice, tolvaptan 22 ng/h, 10 days sc",0.30 ± 0.04 mg/dL
same,reduction of the decline in kidney function compared with placebo,[7],approximately 30%
same,slowing of the usual increase in kidney volume compared to placebo,[7],50%
same,increase in kidney volume,"[7]; placebo 5.51, p<0.001",2.80 % per year
same,reciprocal serum creatinine,"[7]; placebo −3.81, p<0.001",−2.61 (mg/mL)-1 per year
same,excretion of excess fluids and blood sodium levels,[8],increase excretion of excess fluids and improve blood sodium levels
same,side effects,[8],without producing side effects such as hypotension (low blood pressure) or hypokalemia
C[C@H](CS)C(=O)N1CCC[C@H]1C(=O)O [captopril],DOCA-salt hypertension,DOCA-salt hypertension,both prevented and reversed DOCA-salt hypertension
